Reference: patent US20160213729A1, “FILIPENDULA VULGARIS EXTRACT AND USES THEREOF” (ABOCA S.P.A. SOCIETA' AGRICOLA, priority 2013, published 2016)

Tests used:
Assay type in all cases: cell-based, human
[1] = tested on: untransformed normal mesothelial cells (HMC); assay: Comet assay, HMC; settings: single agent
Method: (§6) After the treatment, the cells were trypsinized and immersed in 1% low-melting agarose (Sigma) in PBS and spread onto microscope slides coated beforehand with 1% agarose (Bio-Rad). The cells were lysed in the lysis solution (2.5 M NaCl, 100 mM EDTA, 10 mM Tris base, 8 g/l NaOH, 1% Triton X-100, 10% DMSO) for 1 hour at room temperature and then run into the running solution (300 mM NaOH, 1 mM EDTA, pH 13.0) for 30 minutes, at 25 V and 250 mA. DNA was balanced with 0.4 M Tris, pH 8.0, and the slides dried with methanol. Propidium iodide-DNA (Sigma) and the figures images were taken by using an Axiovert 200M microscope with 40× magnification and an Axiovision (Zeiss) image acquisition software. At least 300 cells per each slide were recorded.

MSTO211H cells = assay: Comet assay, MSTO211H; settings: single agent
Method: as §6

[2] = tested on: mesothelioma cell lines MPM MSTO211H; assay: Cell vitality (ATPlite) in co-treatment with pemetrexed, MSTO211H
Method: (§1) Cell lines MSTO211H and NCl-H2052 were used to evaluate the effects of the association of extract of Filipendula vulgaris±anti-tumour drug.
(§2) The assay shown in FIG. 10 was performed using ATPlite™ assay (Perkin Elmer) in accordance with the producer's instructions.
(§3) A solution of water for injectable solutions and ethanol at a concentration of 1:1 was used in the same volumes used for the treatments.
(§4) pemetrexed (Alimta, Lilly) diluted in accordance with the producer's instructions.
(§5) The concentrations of the assayed compound are plotted on the abscissa, whereas the cell vitality expressed in percentage is plotted on the ordinate.

[3] = tested on: mesothelioma cell lines MPM NCl-H2052; assay: Cell vitality (ATPlite) in co-treatment with pemetrexed, NCl-H2052
Method: as §1, §2, §3, §4, §5

mesothelial cells (HMC) = assay: Cell vitality (ATPlite) in co-treatment with pemetrexed, HMC; settings: pemetrexed alone
Method: as §2, §3, §4, §5

| Compound | DNA damage / fragmentation [1] | DNA damage / fragmentation (MSTO211H cells) | concentration of pemetrexed sufficient to lower the cell vitality in double treatment ([2]; double treatment with extract 6 μg/ml) | cell vitality, single agent ([2]; pemetrexed alone) | concentration of pemetrexed sufficient to lower the cell vitality in double treatment ([3]; NCl-H2052, double treatment with extract 6 μg/ml) | cell vitality, single agent ([3]; NCl-H2052, pemetrexed alone) | toxicity for non-tumour cells, single agent (mesothelial cells (HMC)) |
| --- | --- | --- | --- | --- | --- | --- | --- |
| N.N.[Cl][Pt][Cl] [CDDP, cis-diamminedichloroplatinum] | induces DNA fragmentation | induces DNA fragmentation | – | – | – | – | – |
| Nc1nc2[nH]cc(CCc3ccc(C(=O)N[C@@H](CCC(=O)O)C(=O)O)cc3)c2c(=O)[nH]1 [PMTX, pemetrexed] | – | – | 10 µM | cytotoxic for the MPM cells | 10 µM | cytotoxic for the MPM cells | highly toxic for the non-tumour cells |
